Assay results from PMC9043997, “LEAP2 reduces postprandial glucose excursions and ad libitum food intake in healthy men” (Cell Reports Medicine, 2022).
Where a SMILES comes first, the peptide text is derived from it. Bridges are numbered along the chain shown (N, C = ends).

How the values were obtained:
Format in all cases: in vivo, human
healthy men [1] = test: Visual analog scale ratings of appetite-related sensations, crossover study; details: healthy men n = 20, iv LEAP2 ~25 pmol/kg/min, 100 mm VAS, paired t test of AUC
Protocol: Sensations of hunger, satiety, prospective food consumption, fullness, nausea, comfort and thirst were rated on 100 mm VAS at timepoints −35, 0, 30, 75, 105, 135, 165, 195, 225 and 255 min and after the ad libitum meal.[34] After eating, participants evaluated the ad libitum meal by VAS with a score (median (interquartile range)) for appearance of 55 (36–72) mm, taste 65 (42–76) mm, off-notes 17 (7–31) mm, smell 63 (50–72) mm and overall impression 59 (45–73) mm indicating a moderate evaluation of the meal.

healthy men [2] = test: Indirect calorimetry and renal urea excretion; details: iv LEAP2 ~25 pmol/kg/min
Protocol: Resting energy expenditure and respiratory quotient were measured by indirect calorimetry (Vyntus CPX Canopy; Vyaire Medical, Höchberg, Germany) for 15 min at timepoints −25 (baseline), 45, 120 and 240 min, with the participants awake and in a supine position from 5 min prior to each test. Participants rested in a hospital bed for 30 min before the first test and throughout the experimental day. The gas and flow analyzers were calibrated before each test. The first 5 min and the last minute of data collection were subsequently discarded, and the mean of a 5-min steady state period defined as a coefficient of variation <10% for VO2 and CO2 was used to estimate resting energy expenditure and respiratory quotient for each test. The 5-min steady state period with the lowest resting energy expenditure and with a respiratory quotient between 0.7 and 1.0 was considered. In a few cases without a 5-min steady state period, a 4-min steady state period was considered.[35]^,[36] In the present study, a steady state period of 5 min was successfully reached in […] out of 160 tests. One participant was excluded from the subsequent data analysis due to no steady state period in any of the four tests during an experimental day. A 4-min steady state period was considered in six cases reaching a total of 23 excluded tests from the data analysis.
To assess the amount of protein breakdown after the liquid mixed meal, urine samples were collected at timepoints 135 and 255 min for measurement of renal urea excretion and total urine production. At timepoint 60 min, 5 min prior to ingestion of the liquid mixed meal, participants were asked to empty their urinary bladder.

healthy men [3] = test: Plasma glucose and VAS ratings during the pharmacokinetic study
Protocol: Eight healthy men, recruited among participants in the placebo-controlled, crossover study, were included in an additional clinical study investigating the kinetic parameters of exogenous LEAP2. Each participant underwent a single experimental day with intravenous infusion of LEAP2 (10 min at a rate of ∼101 pmol/kg/min followed by 110 min at ∼25 pmol/kg/min) (see Figure S1B for an overview of the clinical study design). […] Fasting schedule for participants and all instructions from 48 h prior to the experimental day were similar to the placebo-controlled, crossover study. […] LEAP2 infusion was started at timepoint 0 min and discontinued after 120 min. Blood samples were drawn every 15 min from timepoint −30 to 270 min and, additionally, at timepoints 118, 122, 124, 127 and 130 min. Plasma glucose was measured bedside every 15 min from timepoint −30 to 180 min and every 30 min from timepoint 180 to 270 min with a mean concentration of 4.85 ± 0.02 mmol/L. For analytical procedures related to plasma glucose and LEAP2 concentrations, please see the section “Human plasma analyses”. Every 30 min from time −30 to 270 min, participants rated appetite-related sensations on 100 mm VAS[34] with a score (median (interquartile range)) for hunger of 72 (59–79) mm, prospective food consumption 73 (65–82) mm, satiety 22 (14–33) mm, fullness 21 (12–31) mm, comfort 78 (72–90) mm, thirst 78 (71–89) mm and nausea 3.0 (0–9.0).

[4] = healthy fasting men n = 8, -30 to 270 min, median (interquartile range)

CC[C@H](C)[C@@H]1NC(=O)[C@@H]2CSSC[C@@H](C(=O)N[C@@H](CO)C(=O)N[C@@H](CC(C)C)C(=O)N[C@@H](CO)C(=O)N[C@H](C(=O)N[C@@H](C)C(=O)N[C@@H](CCC(N)=O)C(=O)N[C@@H](CCC(=O)O)C(=O)O)C(C)C)NC(=O)[C@H](CCCNC(=N)N)NC(=O)[C@H](CCCNC(=N)N)NC(=O)[C@H](CCCCN)NC(=O)[C@H](CCCNC(=N)N)NC(=O)[C@H](CSSC[C@H](NC(=O)[C@H](CO)NC(=O)[C@H](C)NC(=O)CNC(=O)[C@@H](NC(=O)[C@@H]3CCCN3C(=O)[C@H](CCCNC(=N)N)NC(=O)[C@H](CC(C)C)NC(=O)[C@H](CO)NC(=O)[C@@H](NC(=O)CNC(=O)[C@H](CCCNC(=N)N)NC(=O)[C@H](Cc3c[nH]c4ccccc34)NC(=O)[C@H](Cc3ccccc3)NC(=O)[C@@H]3CCCN3C(=O)[C@@H](NC(=O)[C@@H](N)CCSC)[C@@H](C)O)C(C)C)[C@@H](C)CC)C(=O)N[C@@H](CCCNC(=N)N)C(=O)N[C@@H](CC(=O)O)C(=O)N[C@@H](CC(=O)O)C(=O)N[C@@H](CO)C(=O)N[C@@H](CCC(=O)O)C(=O)N2)NC(=O)[C@H](CC(C)C)NC(=O)[C@H](CCCNC(=N)N)NC(=O)[C@H]([C@@H](C)O)NC1=O [LEAP2, liver-expressed antimicrobial peptide 2] (H-MTPFWRGVSLRPIGASCRDDSECITRLCRKRRCSLSVAQE-OH; disulfide 17-28, 23-33 (inferred); N-terminus and C-terminus assumed)
VAS ratings of hunger, satiety, prospective food consumption, fullness, nausea, comfort, or thirst, LEAP2 vs placebo (healthy men [1]): no differences | resting energy expenditure, LEAP2 vs placebo (healthy men [2]; indirect calorimetry): no differences | respiratory quotient, LEAP2 vs placebo (healthy men [2]; indirect calorimetry, data not shown): no differences | renal urea excretion, LEAP2 vs placebo (healthy men [2]; two consecutive time points (135 and 255 min) or total, data not shown): no difference | plasma glucose mean concentration during the pharmacokinetic study (healthy men [3]; healthy fasting men n = 8, -30 to 270 min, LEAP2 infusion 0 to 120 min): 4.85 ± 0.02 mmol/L | VAS comfort (healthy men [3]; [4]): 78 (72–90) mm | VAS fullness (healthy men [3]; [4]): 21 (12–31) mm | VAS prospective food consumption (healthy men [3]; [4]): 73 (65–82) mm | VAS satiety (healthy men [3]; [4]): 22 (14–33) mm | VAS thirst (healthy men [3]; [4]): 78 (71–89) mm | VAS hunger (healthy men [3]; healthy fasting men n = 8, every 30 min from -30 to 270 min, LEAP2 infusion 0 to 120 min, median (interquartile range)): 72 (59–79) mm
